Series [1] deals with osimertinib metabolism in rat liver microsomes. Kind of series: Inhibition by avitinib of osimertinib metabolism in rat liver microsomes. It counts as in vitro ADME. Conditions: pH 7.4, probe osimertinib 0.01 μM.
Series [2] relates to wild-type EGFR. Conditions: cited from earlier work.
Series [3] can be described thus: Metabolic stability of osimertinib in RLMs. It counts as in vitro ADME, rat. Conditions: rat, rat liver microsomes, pH 7.4. A general note: Liver microsomes are a subcellular fraction often used to study metabolism.
Series [4] has as its system rat liver microsomes (RLM). Kind of series: Metabolic stability of osimertinib in RLMs. It counts as in vitro ADME. The settings on record: osimertinib incubation with RLMs.
Series [5] is described as follows: Pharmacokinetics of osimertinib in rats after pretreatment with avitinib. In kind it is in vivo, Sprague-Dawley rats.
Setting [6] is: avitinib multiple doses group vs control.
[7] abbreviates: avitinib single dose group vs control.

The IC50 is the midpoint of a concentration-inhibition curve. Higher therefore signals a need for much substance. Take `C=CC(=O)Nc1cccc(Oc2nc(Nc3ccc(N4CCN(C)CC4)c(F)c3)nc3[nH]ccc23)c1` [avitinib]: in series [1], inhibition was half-maximal at 27.6 µM (IC50). The “effect on wild-type EGFR” value in series [2] was “no effects”.
The term half-life denotes how long it takes for the measured level to halve. A high value points to slow loss. Turning to `C=CC(=O)Nc1cc(Nc2nccc(-c3cn(C)c4ccccc34)n2)c(OC)cc1N(C)CCN(C)C` [osimertinib], the “inhibitory effect on the wild-type EGFR protein” value in series [2] is on record as “weak inhibitory effect”. Further, the half-life at 0.01 μM in series [3] was found to be 33.6 min. Also, the “Slope (Ln remaining percent vs incubation time)” value in series [4] turned out to be 0.02062. In series [5] (setting [6]), the “decrease of CLz/F vs control” value is reported as 52%, the “increase of AUC(0-t) vs control” value came out at 1.91 fold, the “increase of AUC(0-∞) vs control” value is on record as 1.92 fold and the “increase of Cmax vs control” value is 1.66 fold. Besides, in series [5] (setting [6]), the “increase of MRT(0-t) vs control” value is on record as 1.39 fold and the “increase of Tmax vs control” value was found to be 1.74 fold. In series [5] (setting [7]), the “decrease of CLz/F vs control” value was found to be 44%, the “increase of AUC(0-t) vs control” value is listed as 2.35 fold, the “increase of AUC(0-∞) vs control” value was 2.38 fold and the “increase of Cmax vs control” value came out at 1.72 fold. For the same compound, in series [5] (setting [7]), the “increase of MRT(0-t) vs control” value was found to be 1.31 fold and the “increase of Tmax vs control” value was determined as 1.48 fold.
